Experiment: Phase 1 pharmacokinetic evaluation of nalmefene IN with and without Intravail vs IM injection

## C=C1CC[C@@]2(O)[C@H]3Cc4ccc(O)c5c4[C@@]2(CCN3CC2CC2)[C@H]1O5 [Nalmefene, 17-cyclopropylmethyl-4,5α-epoxy-6-methylenemorphinan-3,14-diol]
1.5 mg IM
  AUCextrap, mean: 22.6%
  Cmax/D, mean: 1.12 ng/mL/mg
  Lambda z, mean: 0.094 h⁻¹
1.5 mg IN
  AUCextrap, mean: 30.6%
  Cmax/D, mean: 0.646 ng/mL/mg
  Half-life, mean: 6.74 h
  Lambda z, mean: 0.131 h⁻¹
3 mg IN
  AUCextrap, mean: 17.9%
  Cmax/D, mean: 0.731 ng/mL/mg
  Lambda z, mean: 0.101 h⁻¹
3 mg plus […] Intravail IN
  AUCextrap, mean: 14.6%
  Cmax/D, mean: 1.65 ng/mL/mg
  Lambda z, mean: 0.117 h⁻¹
human, in vivo, 1.5 mg
  concentration at 0 h: 0 µg/mL
  concentration at 0.04 h: 0 µg/mL
  concentration at 0.08 h: 0 µg/mL
  concentration at 30 h: 0 µg/mL
  concentration at 36 h: 0 µg/mL
  concentration at 48 h: 0 µg/mL
  concentration at 60 h: 0 µg/mL
  concentration at 72 h: 0 µg/mL
human, in vivo, 3 mg
  concentration at 0 h: 0 µg/mL
  concentration at 0.04 h: 0 µg/mL
  concentration at 0.08 h: 0 µg/mL
  concentration at 48 h: 0 µg/mL
  concentration at 60 h: 0 µg/mL
  concentration at 72 h: 0 µg/mL
